# Target: SMYD2 (Homo sapiens, UniProt Q9NRG4)
# Assay: Scintillation Proximity Assay (SPA) for detection of SMYD2 enzymatic inhibition
# Format: biochemical
# Set-up: The SMYD2 full length enzyme was produced in-house by expression (with an N-terminal 6× His tag) in E. coli; 6xHis (N); made in house; host or cells: E. coli
# Details: SMYD2 full length enzyme, p53 Peptide substrate 1.0 μM, 3H-SAM 60 nM; read-out: IC50 [mol/l] (SPA Assay)
# Source text: 1.1 Scintillation Proximity Assay (SPA) for Detection of SMYD2 Enzymatic Inhibition
# SMYD2 inhibitory activities of the compounds described in the present invention were quantified using a scintillation proximity assay (SPA) which measures methylation by the enzyme of the synthetic, biotinylated peptide Btn-Ahx-[…]—Amid×TFA (Biosyntan) derived from p53 and referred to from here on as “p53 Peptide”. The SMYD2 full length enzyme was produced in-house by expression (with an N-terminal 6× His tag) in E. coli and purification by affinity chromatography on a Ni-NTA Sepharose column followed by a size exclusion chromatography step on a Superdex 200 16/60 column (GE Healthcare).
# In a typical assay 11 different concentrations of each compound (0.1 nM, 0.33 nM, 1.1 nM, 3.8 nM, 13 nM, 44 nM, 0.15 μM, 0.51 μM, 1.7 μM, 5.9 μM and 20 μM) were tested in duplicate within the same microtiter plate. To this end, 100-fold concentrated compound solutions (in DMSO) were previously prepared by serial dilution (1:3.4) of 2 mM stocks in a clear low volume 384-well source microliter plate (Greiner Bio-One), from which 50 nl of compound solutions were transferred into a white low volume test microtiter plate from the same supplier. Subsequently, 2.5 μl SMYD2 in aqueous assay buffer [50 mM Tris/HCl pH 9.0 (AppliChem), 1 mM dithiothreitol (DTT, Sigma), 0.01% (w/v) bovine serum albumine (BSA, Sigma), 0.0022% (v/v) Pluronic (Sigma)] were added to the compounds in the test plate to a final enzyme concentration of —typically—3 nM (this parameter was adjusted depending on the activity of the enzyme lot in order to be within the linear dynamic range of the assay). The samples were then incubated for 15 min at 22° C. to allow pre-equilibration of the putative enzyme-inhibitor complexes before the start of the methylation reaction, which was initiated by the addition of 2.5 μl 2-fold concentrated solution (in assay buffer) of titriated S-Adenosyl-L-Methionine (3H-SAM, Perkin Elmer, final concentration: 60 nM) and p53 Peptide substrate (final concentration: 1.0 μM). The resulting mixture (5 μl final volume) was shortly centrifuged (2 min., 1500 rpm) and incubated at 22° C. during 30 min. Thereupon the reaction was stopped by adding 3 μl of Streptavidin PS SPA imaging beads (Perkin Elmer, final concentration of 3.12 μg/μl) and “cold” SAM (AK Scientific, 25 μM final concentration) for non-specific binding reduction. Plates containing the stopped reaction were sealed with transparent adhesive foil (Perkin Elmer), centrifuged (2 min., 1500 rpm), and further incubated for —at least—1 h at RT (or overnight at 4° C.) in order to allow the SPA signals to develop. Subsequently, the amount of product was evaluated by measuring the energy transfer from the β-particles emitted by the 3H-labeled substrate to the Europium scintillator co-polymerized in the polystyrene matrix of the PS imaging beads, using the standard settings for this purpose of a Viewlux (Perkin-Elmer) CCD plate imaging device (emission filter 613/55 (IFP). The resulting scintillation counts were taken as indicator for the amount of methylated peptide per well. The data were normalised using two sets of control wells (typically 16 each) for high−(=enzyme reaction with DMSO instead of test compound=0% =Minimum inhibition) and low−(=all assay components without enzyme=100% =Maximum inhibition) SMYD2 activity. IC50 values were calculated by fitting the normalized inhibition data to a 4-parameter logistic equation using the “Screener” analysis software from Genedata.
# SMYD2, sequence (Q9NRG4 whole entry): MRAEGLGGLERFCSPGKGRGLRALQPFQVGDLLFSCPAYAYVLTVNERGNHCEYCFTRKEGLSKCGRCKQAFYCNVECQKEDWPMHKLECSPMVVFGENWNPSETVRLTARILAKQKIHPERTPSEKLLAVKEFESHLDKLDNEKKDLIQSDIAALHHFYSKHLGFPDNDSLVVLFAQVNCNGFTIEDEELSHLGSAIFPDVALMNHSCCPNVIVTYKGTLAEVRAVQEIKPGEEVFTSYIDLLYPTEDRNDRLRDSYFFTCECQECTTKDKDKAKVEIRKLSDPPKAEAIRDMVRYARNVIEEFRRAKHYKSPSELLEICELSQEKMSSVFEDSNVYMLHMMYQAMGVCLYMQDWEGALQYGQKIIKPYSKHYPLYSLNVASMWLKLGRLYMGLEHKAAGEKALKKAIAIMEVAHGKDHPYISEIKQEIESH
row,IC50 [nM],Compound
1,3950,"CCN(C(=O)[C@H]1CCCN1)C1CN(/C(=N\C#N)Nc2cc(F)cc(OC(F)(F)F)c2)N=C1c1ccc(Cl)c(Cl)c1 (single isomer, unassigned) [Example 24.2, N-[1-{N′-Cyano-N-[3-fluoro-5-(trifluoromethoxy)phenyl]carbamimidoyl}-3-(3,4-diehlorophenyl)-4,5-dihydro-1H-pyrazol-4-yl]-N-ethyl-D-prolinamide]"
2,615,"CCN(C(=O)[C@H]1CCCN1)C1CN(/C(=N\C#N)Nc2cc(OC)ccc2C)N=C1c1ccc(Cl)c(Cl)c1 (mixture of isomers) [Example 34, N-{1-[N′-Cyano-N-(5-methoxy-2-methylphenyl)carbamimidoyl]-3-(3,4-dichlorophenyl)-4,5-dihydro-1H-pyrazol-4-yl}-N-ethyl-D-prolinamide]"
3,519,"CCN(C(=O)[C@H]1C[C@@H](F)CN1)C1CN(/C(=N\C#N)Nc2cc(F)cc(OC(F)(F)F)c2)N=C1c1ccc(Cl)c(Cl)c1 (mixture of isomers) [Example 25, (4R)-N-[1-{N′-Cyano-N-[3-fluoro-5-(trifluoromethoxy)phenyl]carbamimidayl}-3-(3,4-dichlorophenyl)-4,5-dihydro-1H-pyrazol-4-yl]-N-ethyl-4-fluoro-D-prolinamide]"
4,211,"CCN(C(=O)[C@H]1CCCN1)C1CN(/C(=N\C#N)Nc2cccc(CC(F)(F)F)c2)N=C1c1ccc(Cl)c(Cl)c1 (single isomer, unassigned) [Example 31.2, N-[1-{N′-Cyano-N-[3-(2,2,2-trifluoroethyl)phenyl]carbamimidoyl}-3-(3,4-dichlorophenyl)-4,5-dihydro-1H-pyrazol-4-yl]-N-ethyl-D-prolinamide]"
5,12,"C[C@]1(C(=O)NC2CN(/C(=N\C#N)Nc3cccc(OC(F)F)c3)N=C2c2ccc(Cl)c(Cl)c2)CCCN1 (single isomer, unassigned) [Example 6.1, N-[1-{N′-Cyano-N-[3-(difluoromethoxy)phenyl]carbamimidoyl}-3-(3,4-dichlorophenyl)-4,5-dihydro-1H-pyrazol-1-yl]-2-methyl-D-prolinamide]"
6,50.5,"CCN(C(=O)[C@H]1CCCN1)C1CN(/C(=N\C#N)Nc2cccc(OC(F)(F)F)c2F)N=C1c1ccc(Cl)c(Cl)c1 (mixture of isomers) [Example 21, N-[1-{N′-Cyano-N-[2-fluoro-3-(trifluoromethoxy)phenyl]carbamimidoyl}-3-(3,4-dichlorophenyl)-4,5-dihydro-1H-pyrazol-4-yl]-N-ethyl-D-prolinamide]"
7,239,"CCN(C(=O)[C@@H]1CCC[C@@H]1N)C1CN(/C(=N\C#N)Nc2cc(OC)cc(C(F)(F)F)c2)N=C1c1ccc(Cl)c(Cl)c1 (mixture of isomers) [Example 45, (1R,2S)-2-Amino-N-[1-{N′-cyano-N-[3-methoxy-5-(trifluoromethyl)phenyl]carbamimidoyl}-3-(3,4-dichlorophenyl)-4,5-dihydro-1H-pyrazol-4-yl]-N-ethylcyclopentanecarboxamide]"
8,43.2,"CCN(C(=O)[C@H]1CCN1)C1CN(/C(=N\C#N)Nc2cc(F)cc(OC(F)(F)F)c2)N=C1c1ccc(Cl)c(Cl)c1 (mixture of isomers) [Example 23, (2R)-N-[1-{N′-Cyano-N-[3-fluoro-5-(trifluoromethoxy)phenyl]carbamimidoyl}-3-(3,4-dichlorophenyl)-4,5-dihydro-1H-pyrazol-4-yl]-N-ethylazetidine-2-carboxamide]"
9,2240,"CCN(C(=O)[C@H]1C[C@@H](O)CN1)C1CN(/C(=N\C#N)Nc2cccc(OC(F)F)c2)N=C1c1ccc(Cl)c(Cl)c1 (single isomer, unassigned) [Example 3.2]"
10,22.4,"CCN(C(=O)[C@H]1C[C@@H](O)CN1)C1CN(/C(=N\C#N)Nc2cc(OC(F)(F)F)ccc2OC)N=C1c1ccc(Cl)c(Cl)c1 (mixture of isomers) [Example 20, (4R)-N-[1-{N′-Cyano-N-[2-methoxy-5-(trifluoromethoxy)phenyl]carbamimidayl}-3-(3,4-dichlorophenyl)-4,5-dihydro-1H-pyrazol-4-yl]-N-ethyl-1-hydroxy-D-prolinamide]"
11,18.7,"CCN(C(=O)[C@H]1CCCN1)C1CN(/C(=N\C#N)Nc2cccc(OC(F)F)c2)N=C1c1ccc(Cl)c(C)c1 (mixture of isomers) [Example 37, N-[3-(4-Chloro-3-methylphenyl)-1-{N′-cyano-N-[3-(difluoromethoxy)phenyl]carbamimidoyl}-4,5-dihydro-1H-pyrazol-4-yl]-N-ethyl-D-prolinamide]"
12,221,"CCN(C(=O)[C@H]1C[C@@H](O)CN1)C1CN(/C(=N\C#N)Nc2cc(C(F)(F)F)ccc2OC(F)(F)F)N=C1c1ccc(Cl)c(Cl)c1 (mixture of isomers) [Example 29, (4R)-N-[1-{N′-Cyano-N-[2-(trifluoromethoxy)-5-(trifluoromethyl)phenyl]carbamimidoyl}-3-(3,4-dichlorophenyl)-4,5-dihydro-1H-pyrazol-4-yl]-N-ethyl-4-hydroxy-D-prolinamide]"
13,513,"N#C/N=C(/Nc1cccc(OC(F)F)c1)N1CC(NC(=O)C(N)(C2CC2)C2CC2)C(c2ccc(Cl)c(Cl)c2)=N1 (racemic) [Example 8, rac-2-Amino-N-[1-{N′-cyano-N-[3-(difluoromethoxy)phenyl]carbamimidoyl}-3-(3,4-dichlorophenyl)-4,5-dihydro-1H-pyrazol-4-yl]-2,2-dicyclopropylacetamide]"
14,432,"CCN(C(=O)[C@@H]1CCCC[C@@H]1N)C1CN(/C(=N\C#N)Nc2cccc(OC(F)F)c2)N=C1c1ccc(Cl)c(Cl)c1 (mixture of isomers) [Example 43, (1R,2S)-2-amino-N-[1-{N′-cyano-N-[3-(difluoromethoxy)phenyl]carbamimidoyl}-3-(3,4-dichlorophenyl)-4,5-dihydro-1H-pyrazol-4-yl]-N-ethylcyclohexanecarboxamide]"
15,33.6,"CCN(C(=O)[C@H]1CCCN1)C1CN(/C(=N\C#N)Nc2cccc(CC(F)(F)F)c2)N=C1c1ccc(Cl)c(Cl)c1 (single isomer, unassigned) [Example 31.1, N-[1-{N′-Cyano-N-[3-(2,2,2-trifluoroethyl)phenyl]carbamimidoyl}-3-(3,4-dichlorophenyl)-4,5-dihydro-1H-pyrazol-4-yl]-N-ethyl-D-prolinamide]"
16,21,"CCN(C(=O)[C@H]1CCCN1)C1CN(/C(=N\C#N)Nc2cccc(OC(F)(F)F)c2)N=C1c1ccc(Cl)c(Cl)c1 (single isomer, unassigned) [Example 17.1, N-[1-{N′-Cyano-N-[3-(trifluoromethoxy)phenyl]carbamimidoyl}-3-(3,4-dichlorophenyl)-4,5-dihydro-1H-pyrazol-4-yl]-N-ethyl-D-prolinamide]"
17,54.5,"CCN(C(=O)[C@H]1CCCN1)C1CN(/C(=N\C#N)Nc2cc(C(F)(F)F)ccc2OC(F)(F)F)N=C1c1ccc(Cl)c(Cl)c1 (single isomer, unassigned) [Example 30.1, N-[1-{N′-Cyano-N-[2-(trifluoromethoxy)-5-(trifluoromethyl)phenyl]carbamimidoyl}-3-(3,4-dichlorophenyl)-4,5-dihydro-1H-pyrazol-4-yl]-N-ethyl-D-prolinamide]"

row,Compound,IC50 [nM]
1,"(2R)-N-[3-(4-chlaro-3-methylphenyl)-1-{N′-cyano-N-[3-(difluoromethoxy)phenyl]carbamimidoyl}-4,5-dihydro-1H-pyrazol-4-yl]-N-ethylpiperidine-2-carboxamide [Example 46]",1500

# Reference: US20180099937A1, “NOVEL ARYL-CYANOGUANIDINE COMPOUNDS” (Bayer Pharma Aktiengesellschaft, priority 2015, published 2018)
